For assay [1], the system named is PMCs. Kind of assay: Avidin / LAMP-1 surface staining of activated PMCs. The format is cell-based, murine. Set-up: percentage of LAMP-1^+ and avidin^+ PMCs: dose or concentration left out as unconfirmed. Here is the method:
(§1) MCs were collected and washed with PBS containing 0.5% BSA and 0.1% sodium azide. Non-specific binding was inhibited using FcBlock (PBS with 2.0% goat serum and 0.25 mg/mL anti-CD16/32 (clone 2.4G2, BD Biosciences). Surface staining was done with anti-CD117 eFluor450 (clone 2B8, ThermoFisher), anti-FcεRI FITC (clone MAR-1, ThermoFisher) and anti-ABCA1 Alexa Fluor 647 (clone 5A1-1422, BioRad). Cells were washed with Wash Buffer (PBS with 0.5% BSA and 0.1% sodium azide). To detect differences in granulated proteins at the cell surface, IgE-loaded MCs were activated with DNP-HSA with or without NKA in Tyrode's Buffer for 30 min, washed with Wash Buffer then stained with Avidin Alexa Fluor488 (Invitrogen, Av488, 0.8 μg/5×10^5 cells) and anti-LAMP-1 PE (clone eBio 1D48, ThermoFisher). Data were acquired on either a LSRII or a Fortessa (BD BioSciences). Analysis was performed with FlowJo v10.4 (BD Biosciences).

Assay [2] deals with sepsis. As to conditions: in vivo; cited from earlier work.
Assay [3] has as its system atopic dermatitis. In words: MC903-induced atopic dermatitis model. The format is in vivo, murine. As to conditions: MC903 4 nmol/ear daily, glyburide 2.5 mg/kg, i.p. As to the method:
Atopic dermatitis was induced by treating ears with MC903 (4 nmol/ear, daily). The contralateral ear was treated with the vehicle for MC903. Mice were treated with either glyburide (2.5 mg/kg, i.p., daily) or vehicle control. (A) Ear thickness was measured daily. (B-C) On day 11, mice were euthanized and ear tissue embedded sectioned and stained with (B) H & E to evaluate cellular infiltration or (C) Avidin (AvRho) to evaluate mast cells. […] (B-C) show representative images from 3-7 mice over two experiments.

The subject of assay [4] is IL-10. In words: IL-10 degradation assays on BMMC supernatants. The format is cell-based, murine. Here is the method: To detect early IL-10 release, 4×10^6 cells were incubated in serum free RPMI for a minimum of three hours prior to IgE loading and activation with DNP-HSA (100 ng/mL). Supernatants were collected and IL-10 was detected in accord with manufacturer's recommendations using 1.0% BSA to block and a top standard of 250 pg/mL. The lower limit of detection was 7.8 pg/mL. To evaluate the role of relationship between calpain and IL-10, cell-free supernatants were collected 10 min after activation and incubated with Ac-calpastatin (Ac-Cal; 20 μg/mL, Cayman) or vehicle control. […] To directly test IL-10 proteolysis, MCs were activated for 45 min, cell free supernatants were collected and pulsed with recombinant IL-10 (Biolegend, 250 pg/mL).

Assay [5] has as its system passive cutaneous anaphylaxis (PCA). In words: Passive cutaneous anaphylaxis (PCA) in mice. The format is in vivo, mouse. As to the method:
Mouse ears were measured with a micrometer then sensitized with IgE in filter-sterilized PBS (Sigma, clone SPE-7, 20 ng/50 μl/ear) or vehicle control. Twenty-four hours later mice were treated with NKA (10 μg/ear, intradermal) or vehicle (PBS) 3 h prior to Ag (DNP-HSA 100 μg, in 200 μl, intravenous in saline) administration. Data are presented as change in ear thickness between baseline and the indicated time. […] Edema was evaluated histologically and as a function of Evans blue dye extravasation. For histological evaluation, mice were euthanized 2 h after PCA induction. Paraformaldehyde (4.0%) fixed ears were processed for hematoxylin and eosin staining. Pathology was blindly evaluated on an Axiostar plus microscope equipped with epifluorescence and a digital camera (AxioCam; Zeiss). For dye extravasation, Ag was delivered in 1.0% Evans blue dye. Ninety min later mice were euthanized, and ears were excised. Dye was extracted in DriSolv (EMD Millipore) and quantified as absorbance at OD 650 nm. Data are shown as OD650/mg of tissue. Cytokine expression in the skin was investigated 24 h after PCA induction. Mice were euthanized, ears excised, and tissue homogenized in T-PER (ThermoFisher) with Protease Inhibitor Cocktail (Sigma). Protein concentrations were quantified using the BCA Protein Assay (Pierce). The protein profile of skin homogenates was characterized with C-Series Mouse Cytokine Antibody Array C1 (RayBiotech). Densitometry values subtracting the median background from individual spot areas were calculated with ImageStudioLite v5.2.5. The densitometry value from each cytokine spot was divided by the mean densitometry of positive control spots to give relative protein expression. Data were from each experiment were normalized as (Relative Expression [Treated]/Relative expression [Vehicle]). In some experiments, ELISAs were performed on skin homogenates. Neutrophil influx was evaluated as a function of myeloperoxidase (MPO) activity. To detect MPO activity, tissue was homogenized with a Next Advance Bullet Homogenizer in 50 mM KPG4 with 50 mM […]. Homogenate was incubated with ODP (Sigma) with 0.005% H2O2 for 30 minutes. Enzymatic reactions were stopped with 1N HCl and absorbance was read at 450 nm.

Assay [6] concerns STAT5. Kind of assay: STAT5 phosphorylation (flow cytometry) and nuclear localization (ImageStream) in BMMCs. The format is cell-based, murine. As to the method:
To detect phospho-Stat5Tyr694, MCs were loaded with IgE in serum and cytokine-free RPMI. Neurokinin A (1.0 μM) or vehicle control and DNP-HSA (100 ng/mL) were added simultaneously. At the indicated time, cells were fixed with 2.0% paraformaldehyde for 10 minutes then permeabilized with 90% methanol overnight at −20° C. Cells were stained with monoclonal anti-phospho-Stat5 Tyr694 Alexa Fluor 647 (clone C71E5, Cell Signaling Technology) for 60 minutes at room temperature. Nuclear co-localization was evaluated using ImageStream (Amnis). Activated BMMCs were fixed with 2.0% paraformaldehyde, permeabilized with Permeabilization Wash Buffer containing 3% FBS and 0.1% Triton X-100. and stained with anti-STAT5B Alexa Fluor 488 (clone EPR16671, Abcam) and DAPI. Data were analyzed using the Co-localization Wizard in IDEAS (v6.2). Co-localization for single cells expressing STAT5B and DAPI was quantified as Similarity Score, a log-transformed Pearson's correlation coefficient for the pixel intensity of corresponding images.
In general terms: Flow cytometry measures light scatter and fluorescence of single cells or particles in a stream.

Assay [7] relates to ABCA1. In words: Surface ABCA1 expression on activated BMMCs (flow cytometry). The format is cell-based, murine. As to conditions: 30 minutes after IgE-initiated activation; NKA 1000 nM. Here is the method: as §1
Assay [8] has as its system connective tissue MCs from the skin, the heart, or peritoneal MCs. As to conditions: cited from earlier work.
The mark [9] stands for this setting: 24 h after PCA induction, NKA pretreatment.
[10] abbreviates: 24 h after PCA induction, NKA pretreatment, listed as Neurokinin A.
Setting [11] is: NKA 10 μg/ear intradermal 3 h prior to Ag.

This is an account of results in patent publication US20240238228A1, “COMPOSITIONS AND METHODS FOR TREATING ALLERGIES AND INFLAMMATORY CONDITIONS” (UNIVERSITY OF PITTSBURGH-OF THE COMMONWEALTH SYSTEM OF …, priority 2021, published 2024).

As for `COc1ccc(Cl)cc1C(=O)NCCc1ccc(S(=O)(=O)NC(=O)NC2CCCCC2)cc1` [glyburide, reference compound], the “percentage of LAMP-1^+ and avidin^+ PMCs” value in assay [1] (IgE-activated 30 minutes) is on record as “reduced the percentage”. In assay [2], the “effect in diabetic patients in sepsis” value is “anti-inflammatory and protective”. Also, the cutaneous inflammation result in assay [3] is listed as “reduces cutaneous inflammation”. The IL-10 levels result in assay [4] (increasing concentrations of glyburide 10 min prior to activation, supernatants 30 min after activation) is recorded as “increasing”. The “ear thickness at 24 h” value in assay [5] (glyburide 2.5 mg/kg i.p. 3 h prior to PCA induction) is given as “significantly reduced”.
As for Neurokinin A [NKA], in assay [1] (30 min after activation, compared to control), the “percentage of avidin^+ and LAMP-1V PMCs” value is “reduced the percentage”. Further, the “nuclear translocation of STAT5B (imaging flow cytometry)” value in assay [6] (30 and 60 minutes following IgE crosslinking) is reported as “significantly reduced”. Besides, in assay [6] (15 minutes after crosslinking IgE with Ag, NKA 1.0 μM), the “pTyr695-STAT5 detected by flow cytometry” value is reported as “reduced”. Also, in assay [7], the “ABCA1 detected on the cell surface” value is recorded as “reduced the level of ABCA1”. Also, the “early IL-10 in supernatants” value in assay [4] (60 min after activation with NKA) was “significantly more IL-10”. Moreover, the “degradation of early IL-10 / pulsed rIL-10 by released proteases” value in assay [4] (cell-free supernatants pulsed with rIL-10 for 30 min) is on record as “disrupted”. Moreover, in assay [5] (setting [9]), the “IFNγ levels in skin (protein array)” value is listed as “not statistically significant, IFNγ levels increased”; the “IL-3 in IgE-treated skin (protein array)” value was “significantly reduced”; the “IL-6 in IgE-treated skin (protein array)” value is “significantly reduced”; the “IL-13 in IgE-treated skin (protein array)” value is given as “down-regulated”. In assay [5] (setting [9]), the “MCP1 in IgE-treated skin (protein array)” value is listed as “significantly reduced”, the “RANTES in IgE-treated skin (protein array)” value is reported as “significantly reduced” and the “TNF in IgE-treated skin (protein array)” value is “down-regulated”. Further, in assay [5] (setting [10]), the “IL-13 in IgE-treated skin (protein array)” value is listed as “significantly reduced” and the “TNF in IgE-treated skin (protein array)” value is on record as “significantly reduced”. The “Evans blue dye extravasation” value in assay [5] (Mcpt5Cre^+×IL10/l mice) is on record as “no effect”. Also, the “Evans blue dye extravasation” value in assay [5] (Mcpt5Cre^+×IL10^WT mice) is “inhibited”. In assay [5] (Mcpt5 Cre^+×IL10^WT mice, 24 h), the “IL-13 in the skin by ELISA” value is on record as “significantly downregulated” and the “TNF in the skin by ELISA” value was “significantly downregulated”. Further, in assay [5] (Mcpt5Cre^+×IL10^fl/fl mice), the “immune-regulatory capacity (ear measurements) at 2 h and 24 h after PCA induction” value is reported as “lost”. Also, in assay [5] (setting [11]), the “ear thickness, early (1-2 hours) phase of PCA” value is reported as “reduced ear thickness” and the “ear thickness, late phase of PCA (24 h)” value is given as “reduced ear thickness”. Moreover, in assay [5] (NKA 10 μg/ear intradermal 3 h prior to Ag, 90 min after Ag), the “Evans blue dye extravasation” value was “reduced Evans blue dye extravasation”. Also, the “edema in histological sections, early phase of PCA” value in assay [5] (NKA 10 μg/ear intradermal 3 h prior to Ag, 2 h after PCA induction) is reported as “a reduction in edema”. In addition, in assay [5] (NKA pretreated mice), the “IL-10 protein in total skin homogenates” value is “did not increase”. In assay [5] (NKA pretreatment), the “myeloperoxidase activity in skin homogenates, 24 h” value is listed as “reduced myeloperoxidase activity” and the “neutrophil influx in histological sections, late phase (24 h)” value was “reduced neutrophil influx”. In assay [5] (absence of MC-derived IL-10), the “IL-13 in the skin” value is given as “increased” and the “TNF in the skin” value was “increased”. In assay [5] (overall statement), the “PCA, including degranulation-associated edema” value is “fully inhibited”. In addition, in assay [8], the histamine release result is on record as “not”.
